Measurements from patent US10695360B2, “Adiponectin secretion enhancer” (WASHINGTON UNIVERSITY, priority 2017, dated 2020).

Columns and labels:
[1] = tested on: ANKO mice (adipose tissue-specific NAMPT knockout mice); test: NAD+ precursor rescue experiments in ANKO mice (Example 5); type: in vivo, mouse
Description: To determine whether metabolic derangements depend on the defects in NAD+ biosynthesis in ANKO mice, we treated mice with NMN, a key NAD+ intermediate and the product of the NAMPT reaction (FIG. 6A). In the diagram, “NA” represents nicotinic acid, “NaMN” represents nicotinic acid mononucleotide, “NIC” represents nicotinamide, “NR” represents nicotinamide riboside, “Tip” represents tryptophan, and “NAPRT” represents nicotinate phosphoribosyl transferase. NMN is a product of an enzyme reaction mediated by NAMPT and is converted directly to NAD+. Nicotinic acid is a precursor in the NAPRT-dependent NAD+ biosynthesis pathway.
ANKO mice were generated by using adiponectin-Cre transgenic mice and floxed-Nampt mice as previously described (Noon et al., 2015). Mice were maintained on a standard chow diet (LabDiet 5053; LabDiet) ad libitum. For RSG rescue experiments, ANKO mice received a chow containing RSG (#71740; Cayman Chemical) at the approximate dose of 20 mg/kg body Weight/day soon after weaning for up to 7 weeks. For NAD+ precursor rescue experiments, we administered NMN (#44500900; Oriental Yeast) and NA (#72309; Sigma-Aldrich) in drinking water, at the approximate dose of 500 mg/kg of body weight, to ANKO mice soon after weaning for up to 2 months.
More specifically, drinking water containing NMN (500 mg/kg body weight/day) was administered to the female ANKO mice and metabolic parameters were investigated after administering NMN for 4 to 6 weeks. In the graphs, “NMN-ANKO” indicates the results for NMN-treated ANKO mice, “ANKO” indicates the results for NMN-untreated ANKO mice of the same age as the NMN-treated ANKO mice, and “flox/flox” indicates the results for the control mice (female Nampt-floxed (flox/flox) mice). All values in the graphs represent the mean ±SE. In the graphs, “*” indicates p<0.05, “**” indicates p<0.01, and “***” indicates p<0.001 (NMN-treated ANKO mice vs. NMN-untreated ANKO mice, Student's t-test). In addition, in the graphs, “a” indicates p<0.05 (NMN-treated ANKO mice vs. NMN-untreated ANKO mice, ANOVA), and “b” indicates p<0.05 (control mice vs. NMN-untreated ANKO mice, ANOVA).
FIG. 6B indicates the results of measuring […] levels in adipose tissue for female ANKO mice administered NMN for 4 to 6 weeks (500 mg/kg body weight day) and non-dosed female ANKO mice of the same age (per group, n=5 to 7). NAD+ levels were measured with an HPLC (high-performance liquid chromatography) system using a Supelco LC-18-T column (#58970-U, Sigma-Aldrich Corp.) (Yoon, et al., Cell Metabolism, 2015, Vol. 21, p. 706-717). FIG. 6C indicates the results of having carried out an insulin tolerance test (ITT), consisting of administering insulin and measuring blood glucose concentration over time, on NMN-treated mice following administration of NMN for 4 weeks (n=7) and non-dosed ANKO mice for which age has been aligned at 2 to 3 weeks (n=14), and control mice (n=8). The left graph in FIG. 6C indicates the results for changes in glucose concentration over time (insulin tolerance curve), while the graph on the right side of FIG. 6C indicates the results for the area under the curve (AUC) of glucose concentration.
The results for measuring plasma insulin concentrations for NMN-treated ANKO mice, NMN-untreated ANKO mice and control mice are shown in FIG. 6D, while the results of measuring plasma free fatty acid (FFA) concentrations are shown in FIG. 6E (per group, n=5 to 11). In addition, visceral adipose tissue was respectively sampled from NMN-treated ANKO mice and NMN-untreated ANKO mice followed by measurement of the levels of PPARγ (Ser273), CDK5 and nuclear protein acetylated lysine in the visceral adipose tissue (per group, n=3 to 4). […]

adiponectin [2] = test: Serum adiponectin levels in mice intraperitoneally administered β-NMN (Example 3); type: in vivo, mouse; details: C57BL/6J mice, females, intraperitoneal 625 and 1250 mg/kg/day, day 4
Method: A solution prepared by dissolving β-NMN (Oriental Yeast Co., Ltd.) in PBS (phosphate-buffered saline) was administered intraperitoneally in accordance with the method of Dr. Sinclair (Gomes, et al., Cell, 2013, Vol. 155, p. 1624-1638) and the method of Dr. Imai (Yoshino, et al., Cell Metabolism, 2011, Vol. 14, p. 528-536).
(§1) Measurement of adiponectin levels in the following experiments was carried out in the manner indicated below.
(§2) Anti-mouse adiponectin polyclonal antibody (Oriental Yeast Co., Ltd.) was adjusted to 10 μg/mL with PBS for use as primary antibody solution. […]
(§3) Moreover, 100 μl of substrate solution (Becton Dickinson & Co., TMB Substrate Reagent Set, #555214) were added to each well, and the plate covered with sealing film was incubated for 15 minutes at 25° C. After stopping the reaction by adding 100 μL of 2 N sulfuric acid to each well, the absorbance of each well was measured at a primary wavelength of 450 nm and a secondary wavelength of 570 nm with a plate reader (FLOUstar Optima, BMG LabTech Ltd.). Furthermore, since the mouse adiponectin polyclonal antibody used in ELISA cross-reacts with rat adiponectin, levels of rat adiponectin were measured as mouse adiponectin by using standard mouse adiponectin. […]
(§4) Mouse serum adiponectin levels were measured on day 4 from the start of administration. […]

adiponectin [3] = test: Serum adiponectin levels in rats orally administered β-NMN (Example 1); type: in vivo, rat; details: CD rats, males and females, oral 250 and 1000 mg/kg/day, day 28
Method: (§5) A solution prepared by dissolving β-NMN (Oriental Yeast Co., Ltd.) in water for injection (Otsuka Pharmaceutical Co., Ltd.) or PBS (phosphate-buffered saline) was orally administered by gavage using a metal gastric tube (Fuchigami Kikai Co., Ltd.) attached to a polypropylene disposable syringe (Terumo Corp.).
as §1, §2, §3
Rat serum adiponectin levels were measured on day 28 from the start of administration.

adiponectin [4] = test: Serum adiponectin levels in mice orally administered β-NMN (Example 2); type: in vivo, mouse; details: C57BL/6N mice, females, oral 125 and 625 mg/kg/day, day 4
Method: as §5, §1, §2, §3, §4

[5] = tested on: adipocytes differentiated from mouse fibroblast 3T3-L1 cells; test: Adiponectin secreted from adipocytes differentiated from 3T3-L1 cells stimulated with β-NMN (Example 4); type: cell-based; details: 3T3-L1 adipocytes cultured with β-NMN for 7 days vs without
Method: 3T3-L1 cells were differentiated into adipocytes and then the cells were stimulated with β-NMN to measure the secreted amount of adiponectin. The 3T3-L1 cells were differentiated into adipocytes in the manner described below. First, 3T3-L1 cells were seeded in a 24-well plate at 5×10^4 cells/well followed by culturing for 2 to 3 days in culture medium (DMEM containing 10% fetal bovine serum (FBS)) at 37° C. in 5% CO2. Next, the culture medium was replaced with a first differentiation-inducing medium (containing 10 μM dexamethasone, 5 μM 3-isobutyl-1-methylxanthine (IBMX) and 10 μg/mL of insulin) followed by culturing for 2 days at 37° C. in 5% CO2. The medium was replaced with the second differentiation-inducing medium (containing 10 μg/mL of insulin) followed by culturing for 2 days at 37° C. in 5% CO2. Subsequently, the medium was twice replaced with culture medium every 2 to 3 days to differentiate the 3T3-L1 cells into mature adipocytes. 3T3-L1 adipocytes were cultured in the presence (“NMN addition”) or absence (“NMN non-addition”) of β-NMN for 7 days. The amount of adiponectin secreted into the culture supernatant was measured. The results of measurement of adiponectin levels in the culture supernatant are shown in. FIG. 4. […]

[6] = ANKO mice, NMN 500 mg/kg body weight/day, 4 to 6 weeks
[7] = NMN-treated vs untreated ANKO mice
[8] = visceral adipose tissue, NMN-treated vs untreated ANKO mice

SMILES	metabolic disorders of ANKO mice ([1]; nicotinic acid 500 mg/kg body weight/day, 5- to 7-week administration)	serum adiponectin levels (adiponectin [2])	serum adiponectin levels (adiponectin [3])	insulin sensitivity (insulin tolerance test) ([1]; ANKO mice, NMN 500 mg/kg body weight/day for 4 weeks, vs age-matched untreated ANKO mice)	plasma FFA concentrations [1, 6]	plasma insulin concentrations [1, 6]	plasma concentrations of adiponectin [1, 7]	plasma concentrations of adipsin [1, 7]	adipose tissue NAD+ concentrations ([1]; female ANKO mice, NMN 500 mg/kg body weight/day in drinking water, 4 to 6 weeks)	Adipose tissue gene expression of adiponectin and adipsin [1, 8]	global nuclear lysine acetylation [1, 8]	phosphorylation of CDK5 in VAT [1, 8]	phosphorylation of PPARγ (Ser273) in VAT [1, 8]	metabolic disorders of ANKO mice ([1]; β-NMN 500 mg/kg body weight/day in drinking water, 4 to 6 weeks)	serum adiponectin levels (adiponectin [4])	adiponectin levels in the culture supernatant [5]
O=C(O)c1cccnc1 [nicotinic acid, reference compound]	improved															
NC(=O)c1ccc[n+]([C@@H]2O[C@H](COP(=O)([O-])O)C(O)[C@H]2O)c1 (stereo partly drawn) [β-NMN, Nicotinamide mononucleotide]		increased serum adiponectin levels dose-dependently	increased serum adiponectin levels dose-dependently	improved	normalized	normalized	restored	restored	significantly increased	restored	reduced	decreased	decreased	improved	increased serum adiponectin levels dose-dependently	higher
